Patent US8889704B2 (Array BioPharma Inc., priority 2011, dated 2014)
Counter-ions that a name gives are not always drawn.

Assays:
Format in all cases: biochemical
PIM-1 = PIM-1 (Homo sapiens, UniProt P11309); assay: Enzyme PIM-1 Assay ([33P]ATP incorporation into PIM2tide, filter plate); conditions: averaged IC50; 35 μM ATP, 7.5 μM PIM2tide, 0.25 nM PIM-1, 60 min at 22° C.
Summary of the method: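 Ten-point, 3-fold dilution series (10 μM top, 2% DMSO final) tested for inhibition of 33P transfer from 35 μM ATP to 7.5 μM PIM2tide by 0.25 nM PIM-1. Reaction 60 min, 22 °C, pH 7.4 MOPS/MgCl2 buffer; phosphocellulose capture, scintillation counting, IC50 where fitted POC equals 50.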

[1] = target: T1, GST-tagged recombinant full-length human Pim-2 (Homo sapiens, UniProt Q9P1W9); assay: PIM-2 Assay (as Example A); conditions: averaged IC50; 4 μM ATP, 1.0 μM PIM2tide, 1.5 nM Pim-2
T1 construct: GST-tagged recombinant full-length human Pim-2; GST
T1 sequence (Q9P1W9 whole entry): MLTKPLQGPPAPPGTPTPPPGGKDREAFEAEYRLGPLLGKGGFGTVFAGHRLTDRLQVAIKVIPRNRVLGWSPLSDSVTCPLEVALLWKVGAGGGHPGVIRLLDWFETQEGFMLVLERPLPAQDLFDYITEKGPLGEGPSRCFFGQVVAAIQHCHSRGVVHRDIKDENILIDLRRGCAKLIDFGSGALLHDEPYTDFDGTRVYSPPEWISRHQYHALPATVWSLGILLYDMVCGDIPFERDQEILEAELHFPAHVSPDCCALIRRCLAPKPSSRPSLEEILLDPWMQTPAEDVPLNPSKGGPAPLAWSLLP
Summary of the method: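 IC50 was derived by 4-parameter logistic fitting of percent-of-control data over a 10-point, 3-fold series (highest 10 μM, 2% DMSO). Reactions held 1.5 nM GST-Pim-2 (full-length, human), 4 μM [γ-33P]ATP and 1.0 μM PIM2tide for 60 min at 22 °C, pH 7.4; 33P-peptide captured on P81 filters.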

recombinant rat PIM-3 = recombinant rat PIM-3 (Rattus norvegicus, UniProt O70444); assay: PIM-3 Assay (as Example A); conditions: averaged IC50; 30 μM ATP, 3.75 μM PIM2tide, 0.5 nM PIM-3
Summary of the method: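 33P incorporation from 30 μM [γ-33P]ATP into 3.75 μM PIM2tide by 0.5 nM rat PIM-3, 60 min at 22 °C in pH 7.4 MOPS buffer, read by P81 filter capture and scintillation counting. Compounds tested in 3-fold dilutions up to 10 μM final, 2% DMSO; percent-of-control data fitted by 4-parameter logistic for IC50.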

Sequence of PIM-1 (P11309 whole entry, species assumed): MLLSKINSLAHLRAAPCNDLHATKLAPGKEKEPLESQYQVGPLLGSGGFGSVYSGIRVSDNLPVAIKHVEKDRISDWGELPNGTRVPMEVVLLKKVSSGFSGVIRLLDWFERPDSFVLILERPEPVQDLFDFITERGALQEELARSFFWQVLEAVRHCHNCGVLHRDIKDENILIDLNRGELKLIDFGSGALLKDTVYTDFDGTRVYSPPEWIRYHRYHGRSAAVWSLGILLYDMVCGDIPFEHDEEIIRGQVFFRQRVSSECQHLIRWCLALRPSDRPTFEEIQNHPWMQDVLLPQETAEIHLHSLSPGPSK

IC50 (PIM-1) [nM] | IC50 [1] [nM] | IC50 (recombinant rat PIM-3) [nM] | SMILES
0.24 | 284 | 0.6 | CCOc1ccc2ccc(-c3nnc4ccc([C@@H](N5CC[C@H](N)C5)C(F)(F)F)cn34)nc2c1 [Example 255, (S)-1-((R)-1-(3-(7-ethoxyquinolin-2-yl)-[1,2,4]triazolo[4,3-a]pyridin-6-yl)-2,2,2-trifluoroethyl)pyrrolidin-3-amine dihydrochloride]
0.17 | 29.4 | 0.4 | C[C@@H](c1ccc2nnc(-c3ccc4cccc(C(C)(C)C)c4n3)n2c1)N1CC[C@H](N)C1 [Example 308, (S)-1-((S)-1-(3-(8-tert-butylquinolin-2-yl)-[1,2,4]triazolo[4,3-a]pyridin-6-yl)ethyl)pyrrolidin-3-amine trihydrochloride]
0.07 | 33 | 0.3 | CC(C)(C)NC(=O)c1ccc2ccc(-c3nnc4ccc([C@@H](N5CC[C@H](N)C5)C(F)(F)F)cn34)nc2c1 [Example 46, 2-(6-((R)-1-((S)-3-aminopyrrolidin-1-yl)-2,2,2-trifluoroethyl)-[1,2,4]triazolo[4,3-a]pyridin-3-yl)-N-tert-butylquinoline-7-carboxamide dihydrochloride]
0.29 | 31 | 4.6 | C[C@@]1(N)CCN([C@@H](c2ccc3nnc(-c4ccc5cccc(C6CC6)c5n4)n3c2)C(F)(F)F)C1 [Example 94, (R)-1-((S)-1-(3-(8-cyclopropylquinolin-2-yl)-[1,2,4]triazolo[4,3-a]pyridin-6-yl)-2,2,2-trifluoroethyl)-3-methylpyrrolidin-3-amine dihydrochloride]
2.22 | > 100 | 10 | N[C@H]1CCN([C@H](c2ccc3nnc(-c4ccc5ccc(C6CC6)c(F)c5n4)n3c2)C(F)(F)F)C1 [Example 172, (S)-1-((R)-1-(3-(7-cyclopropyl-8-fluoroquinolin-2-yl)-[1,2,4]triazolo[4,3-a]pyridin-6-yl)-2,2,2-trifluoroethyl)pyrrolidin-3-amine dihydrochloride]
0.15 | 76 | 0.4 | Cn1cc(-c2ccc3ccc(-c4nnc5ccc([C@H](N6CC[C@H](N)C6)C(F)(F)F)cn45)nc3c2)cn1 (single isomer, unassigned) [Example 14, tri-hydrochloride]

More lines, now with the values behind:

SMILES | IC50 (PIM-1) [nM] | IC50 [1] [nM] | IC50 (recombinant rat PIM-3) [nM]
Cn1cc(-c2ccc3ccc(-c4nnc5ccc(C(N6CC[C@H](N)C6)C(F)(F)F)cn45)nc3c2)cn1 (stereo partly drawn) [Example 4, (3S)-1-(2,2,2-trifluoro-1-(3-(7-(1-methyl-1H-pyrazol-4-yl)quinolin-2-yl)-[1,2,4]triazolo[4,3-a]pyridin-6-yl)ethyl)pyrrolidin-3-amine trihydrochloride] | 0.84 | 451 | 12
CCOc1cc2nc(-c3nnc4ccc([C@H](N5CC[C@@](C)(N)C5)C(F)(F)F)cn34)ccc2cc1F [Example 294, (R)-1-((S)-1-(3-(7-ethoxy-6-fluoroquinolin-2-yl)-[1,2,4]triazolo[4,3-a]pyridin-6-yl)-2,2,2-trifluoroethyl)-3-methylpyrrolidin-3-amine hydrochloride] | 0.53 | 94 | 0.7
N[C@H]1CCN([C@H](c2ccc3nnc(-c4ccc5cc(F)cc(C6(CO)CC6)c5n4)n3c2)C(F)(F)F)C1 [Example 125, (1-(2-(6-((R)-1-((S)-3-aminopyrrolidin-1-yl)-2,2,2-trifluoroethyl)-[1,2,4]triazolo[4,3-a]pyridin-3-yl)-6-fluoroquinolin-8-yl)cyclopropyl)methanol dihydrochloride] | 0.11 | 6.2 | 0.4
N[C@H]1CCN([C@H](c2ccc3nnc(-c4ccc5cc(F)cc(OCC(F)(F)F)c5n4)n3c2)C(F)(F)F)C1 [Example 232, (S)-1-((R)-2,2,2-trifluoro-1-(3-(6-fluoro-8-(2,2,2-trifluoroethoxy)quinolin-2-yl)-[1,2,4]triazolo[4,3-a]pyridin-6-yl)ethyl)pyrrolidin-3-amine dihydrochloride] | 0.2 | 206 | 0.8
